From PubChem BioAssay (NCI)
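A five-concentration, 48-hour dose response in 96-well plates underlies each endpoint, interpolated linearly between surrounding concentrations. Here, GI50 denotes the concentration required for 50% inhibition of growth. TGI marks complete inhibition of growth.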

How the values were obtained:
Experiment in all cases: growth of human tumour cells (NCI), 48 h
OVCAR-4 ovarian = test system: OVCAR-4 ovarian
A498 renal = test system: A498 renal
NCI-H460 lung = test system: NCI-H460 lung
ACHN renal = test system: ACHN renal
NCI-H522 lung = test system: NCI-H522 lung
SR leukemia = test system: SR leukemia
CAKI-1 renal = test system: CAKI-1 renal
CCRF-CEM leukemia = test system: CCRF-CEM leukemia
HOP-92 NSCLC = test system: HOP-92 NSCLC
UO-31 renal = test system: UO-31 renal
SN12C renal = test system: SN12C renal
NCI-H226 lung = test system: NCI-H226 lung
SK-OV-3 ovarian = test system: SK-OV-3 ovarian
MDA-MB-468 breast = test system: MDA-MB-468 breast
M14 melanoma = test system: M14 melanoma
U251 CNS = test system: U251 CNS
RPMI-8226 leukemia = test system: RPMI-8226 leukemia
SF-539 CNS = test system: SF-539 CNS
NCI-H23 lung = test system: NCI-H23 lung
HCC-2998 colon = test system: HCC-2998 colon
MALME-3M melanoma = test system: MALME-3M melanoma
PC-3 prostate = test system: PC-3 prostate
UACC-62 melanoma = test system: UACC-62 melanoma
HCT-15 colon = test system: HCT-15 colon
T-47D breast = test system: T-47D breast
LOX IMVI melanoma = test system: LOX IMVI melanoma
SNB-75 CNS = test system: SNB-75 CNS
MOLT-4 leukemia = test system: MOLT-4 leukemia
SK-MEL-5 melanoma = test system: SK-MEL-5 melanoma
786-0 renal = test system: 786-0 renal
OVCAR-5 ovarian = test system: OVCAR-5 ovarian
MDA-MB-231 breast = test system: MDA-MB-231 breast
A549 NSCLC = test system: A549 NSCLC
SNB-19 CNS = test system: SNB-19 CNS
DU-145 prostate = test system: DU-145 prostate
COLO 205 colon = test system: COLO 205 colon
OVCAR-8 ovarian = test system: OVCAR-8 ovarian
KM12 colon = test system: KM12 colon
UACC-257 melanoma = test system: UACC-257 melanoma
IGROV1 ovarian = test system: IGROV1 ovarian
HOP-62 NSCLC = test system: HOP-62 NSCLC
SF-268 CNS = test system: SF-268 CNS
HT29 colon = test system: HT29 colon
NCI/ADR-RES ovarian = test system: NCI/ADR-RES ovarian
HS 578T breast = test system: HS 578T breast
SW-620 colon = test system: SW-620 colon
K-562 leukemia = test system: K-562 leukemia
MDA-MB-435 = test system: MDA-MB-435
BT-549 breast = test system: BT-549 breast
SK-MEL-2 melanoma = test system: SK-MEL-2 melanoma
SF-295 CNS = test system: SF-295 CNS
MCF7 breast = test system: MCF7 breast
SK-MEL-28 melanoma = test system: SK-MEL-28 melanoma
OVCAR-3 ovarian = test system: OVCAR-3 ovarian
HL-60(TB) leukemia = test system: HL-60(TB) leukemia
TK-10 renal = test system: TK-10 renal
EKVX NSCLC = test system: EKVX NSCLC
HCT-116 colon = test system: HCT-116 colon

For `COC(=O)c1ccc(-n2cc(CCCN(CCNc3ccnc4cc(Cl)ccc34)C(=O)CCC(=O)O[C@@H]3O[C@@H]4OC5(C)CC[C@H]6[C@H](C)CC[C@@H]([C@H]3C)[C@@]46OO5)nn2)cc1`, which GI50 (OVCAR-4 ovarian) is on record?
The GI50 was 546 nM.

And the TGI (OVCAR-4 ovarian)?
The TGI was greater than 10800 nM.

What about the GI50 (A498 renal) of the same compound?
The GI50 was greater than 10800 nM.

And the TGI (A498 renal)?
Its TGI is greater than 10800 nM.

And the GI50 (NCI-H460 lung)?
Its GI50 is 6150 nM.

And the TGI (NCI-H460 lung)?
The TGI was greater than 10800 nM.

What about the GI50 (ACHN renal) of the same compound?
The GI50 was 1870 nM.

And the TGI (ACHN renal)?
The TGI was greater than 10800 nM.

And the GI50 (NCI-H522 lung)?
Its GI50 is 442 nM.

What about the TGI (NCI-H522 lung) of the same compound?
Its TGI is greater than 10800 nM.

What about the GI50 (SR leukemia) of the same compound?
Its GI50 is 314 nM.

What about the TGI (SR leukemia) of the same compound?
Its TGI is 4090 nM.

What about the GI50 (CAKI-1 renal) of the same compound?
Its GI50 is 6830 nM.

And the TGI (CAKI-1 renal)?
Its TGI is greater than 10800 nM.

And the GI50 (CCRF-CEM leukemia)?
The GI50 was 506 nM.

And the TGI (CCRF-CEM leukemia)?
Its TGI is greater than 10800 nM.

And the GI50 (HOP-92 NSCLC)?
Its GI50 is 280 nM.

What about the TGI (HOP-92 NSCLC) of the same compound?
Its TGI is 2820 nM.

What about the GI50 (UO-31 renal) of the same compound?
The GI50 was 1030 nM.

And the TGI (UO-31 renal)?
The TGI was greater than 10800 nM.

What about the GI50 (SN12C renal) of the same compound?
The GI50 was 1680 nM.

And the TGI (SN12C renal)?
Its TGI is greater than 10800 nM.

What about the GI50 (NCI-H226 lung) of the same compound?
Its GI50 is 1110 nM.

What about the TGI (NCI-H226 lung) of the same compound?
The TGI was greater than 10800 nM.

And the GI50 (SK-OV-3 ovarian)?
The GI50 was greater than 10800 nM.

And the TGI (SK-OV-3 ovarian)?
Its TGI is greater than 10800 nM.

What about the GI50 (MDA-MB-468 breast) of the same compound?
Its GI50 is 619 nM.

What about the TGI (MDA-MB-468 breast) of the same compound?
Its TGI is 10300 nM.

What about the GI50 (M14 melanoma) of the same compound?
The GI50 was 2650 nM.

What about the TGI (M14 melanoma) of the same compound?
The TGI was greater than 10800 nM.

What about the GI50 (U251 CNS) of the same compound?
The GI50 was 805 nM.

What about the TGI (U251 CNS) of the same compound?
Its TGI is greater than 10800 nM.

And the GI50 (RPMI-8226 leukemia)?
The GI50 was 189 nM.

And the TGI (RPMI-8226 leukemia)?
Its TGI is greater than 10800 nM.

What about the GI50 (SF-539 CNS) of the same compound?
The GI50 was 3150 nM.

And the TGI (SF-539 CNS)?
The TGI was greater than 10800 nM.

What about the GI50 (NCI-H23 lung) of the same compound?
Its GI50 is 633 nM.

What about the TGI (NCI-H23 lung) of the same compound?
Its TGI is greater than 10800 nM.

And the GI50 (HCC-2998 colon)?
The GI50 was 2000 nM.

And the TGI (HCC-2998 colon)?
The TGI was greater than 10800 nM.

What about the GI50 (MALME-3M melanoma) of the same compound?
Its GI50 is 1250 nM.

And the TGI (MALME-3M melanoma)?
Its TGI is 2750 nM.

And the GI50 (PC-3 prostate)?
The GI50 was 91.7 nM.

What about the TGI (PC-3 prostate) of the same compound?
Its TGI is greater than 10800 nM.

And the GI50 (UACC-62 melanoma)?
The GI50 was 720 nM.

What about the TGI (UACC-62 melanoma) of the same compound?
Its TGI is greater than 10800 nM.

What about the GI50 (HCT-15 colon) of the same compound?
The GI50 was 246 nM.

What about the TGI (HCT-15 colon) of the same compound?
Its TGI is 2130 nM.

What about the GI50 (T-47D breast) of the same compound?
Its GI50 is 254 nM.

What about the TGI (T-47D breast) of the same compound?
The TGI was greater than 10800 nM.

And the GI50 (LOX IMVI melanoma)?
The GI50 was 429 nM.

What about the TGI (LOX IMVI melanoma) of the same compound?
The TGI was 6000 nM.

What about the GI50 (SNB-75 CNS) of the same compound?
Its GI50 is 1010 nM.

What about the TGI (SNB-75 CNS) of the same compound?
Its TGI is greater than 10800 nM.

What about the GI50 (MOLT-4 leukemia) of the same compound?
The GI50 was 216 nM.

What about the TGI (MOLT-4 leukemia) of the same compound?
Its TGI is 4450 nM.

And the GI50 (SK-MEL-5 melanoma)?
Its GI50 is 755 nM.

And the TGI (SK-MEL-5 melanoma)?
The TGI was 2410 nM.

And the GI50 (786-0 renal)?
Its GI50 is 3740 nM.

What about the TGI (786-0 renal) of the same compound?
The TGI was greater than 10800 nM.

And the GI50 (OVCAR-5 ovarian)?
Its GI50 is 796 nM.

What about the TGI (OVCAR-5 ovarian) of the same compound?
Its TGI is greater than 10800 nM.

What about the GI50 (MDA-MB-231 breast) of the same compound?
Its GI50 is 6840 nM.

What about the TGI (MDA-MB-231 breast) of the same compound?
Its TGI is greater than 10800 nM.

What about the GI50 (A549 NSCLC) of the same compound?
Its GI50 is 1790 nM.

And the TGI (A549 NSCLC)?
Its TGI is greater than 10800 nM.

And the GI50 (SNB-19 CNS)?
Its GI50 is greater than 10800 nM.

And the TGI (SNB-19 CNS)?
The TGI was greater than 10800 nM.

And the GI50 (DU-145 prostate)?
Its GI50 is greater than 10800 nM.

What about the TGI (DU-145 prostate) of the same compound?
The TGI was greater than 10800 nM.

What about the GI50 (COLO 205 colon) of the same compound?
The GI50 was 355 nM.

And the TGI (COLO 205 colon)?
The TGI was greater than 10800 nM.

And the GI50 (OVCAR-8 ovarian)?
Its GI50 is 550 nM.

What about the TGI (OVCAR-8 ovarian) of the same compound?
The TGI was 3850 nM.

And the GI50 (KM12 colon)?
Its GI50 is 319 nM.

And the TGI (KM12 colon)?
Its TGI is greater than 10800 nM.

What about the GI50 (UACC-257 melanoma) of the same compound?
Its GI50 is 890 nM.

And the TGI (UACC-257 melanoma)?
Its TGI is greater than 10800 nM.

What about the GI50 (IGROV1 ovarian) of the same compound?
Its GI50 is 1880 nM.

And the TGI (IGROV1 ovarian)?
Its TGI is greater than 10800 nM.

And the GI50 (HOP-62 NSCLC)?
The GI50 was greater than 10800 nM.

And the TGI (HOP-62 NSCLC)?
Its TGI is greater than 10800 nM.

What about the GI50 (SF-268 CNS) of the same compound?
The GI50 was 2580 nM.

And the TGI (SF-268 CNS)?
The TGI was greater than 10800 nM.

And the GI50 (HT29 colon)?
The GI50 was 519 nM.

What about the TGI (HT29 colon) of the same compound?
The TGI was greater than 10800 nM.

What about the GI50 (NCI/ADR-RES ovarian) of the same compound?
The GI50 was 1760 nM.

What about the TGI (NCI/ADR-RES ovarian) of the same compound?
Its TGI is greater than 10800 nM.

And the GI50 (HS 578T breast)?
The GI50 was 751 nM.

And the TGI (HS 578T breast)?
The TGI was greater than 10800 nM.

What about the GI50 (SW-620 colon) of the same compound?
Its GI50 is 375 nM.

And the TGI (SW-620 colon)?
Its TGI is greater than 10800 nM.

And the GI50 (K-562 leukemia)?
Its GI50 is 247 nM.

And the TGI (K-562 leukemia)?
The TGI was 7230 nM.

And the GI50 (MDA-MB-435)?
The GI50 was 508 nM.

What about the TGI (MDA-MB-435) of the same compound?
The TGI was 3630 nM.

And the GI50 (BT-549 breast)?
The GI50 was 541 nM.

And the TGI (BT-549 breast)?
The TGI was greater than 10800 nM.

What about the GI50 (SK-MEL-2 melanoma) of the same compound?
Its GI50 is 2400 nM.

And the TGI (SK-MEL-2 melanoma)?
Its TGI is greater than 10800 nM.

What about the GI50 (SF-295 CNS) of the same compound?
Its GI50 is 3240 nM.

What about the TGI (SF-295 CNS) of the same compound?
The TGI was greater than 10800 nM.

What about the GI50 (MCF7 breast) of the same compound?
Its GI50 is 444 nM.

And the TGI (MCF7 breast)?
The TGI was 2320 nM.

And the GI50 (SK-MEL-28 melanoma)?
Its GI50 is 1330 nM.

And the TGI (SK-MEL-28 melanoma)?
Its TGI is greater than 10800 nM.

And the GI50 (OVCAR-3 ovarian)?
The GI50 was 397 nM.

And the TGI (OVCAR-3 ovarian)?
The TGI was greater than 10800 nM.

And the GI50 (HL-60(TB) leukemia)?
Its GI50 is 334 nM.

And the TGI (HL-60(TB) leukemia)?
The TGI was 1600 nM.

What about the GI50 (TK-10 renal) of the same compound?
Its GI50 is greater than 10800 nM.

What about the TGI (TK-10 renal) of the same compound?
The TGI was greater than 10800 nM.

What about the GI50 (EKVX NSCLC) of the same compound?
The GI50 was 827 nM.

And the TGI (EKVX NSCLC)?
Its TGI is greater than 10800 nM.

What about the GI50 (HCT-116 colon) of the same compound?
Its GI50 is 155 nM.

And the TGI (HCT-116 colon)?
The TGI was greater than 10800 nM.
